Consider 3 compounds from patent US6495544B2, “Homoiminopiperidinyl hexanoic acid inhibitors of inducible nitric oxide synthase” (Pharmacia Corporation, priority 2000, dated 2002).

Each structure is given as a SMILES string.

The term IC50 denotes the concentration that inhibits the measured activity by half. By inhibition is commonly meant the share of the control response that was lost under treatment.

The target in assay [1] is T1, Human inducible NOS (hiNOS) (Homo sapiens, UniProt P35228).
T1 construct: made in house; host or cells: Sf9 insect cells, baculovirus vector
Description: Citrulline assay for nitric oxide synthase, hiNOS. In kind it is biochemical. Conditions: 30 μM L-arginine, 37° C., 15 minutes. The protocol:
(§1) Nitric oxide synthase (NOS) activity is measured by monitoring the conversion of [^3H]-arginine to [^3H]-citrulline (Bredt and Snyder, Proc. Natl. Acad. Sci. U.S.A., 87, 682-685, 1990 and Misko et al, Eur. J. Pharm., 233, 119-125, 1993). Human inducible NOS (hiNOS), human endothelial constitutive NOS (hecNOS) and human neuronal constitutive NOS (hncNOS) are each cloned from RNA extracted from human tissue. The cDNA for human inducible NOS (hiNOS) is isolated from a lambda cDNA library made from RNA extracted from a colon sample from a patient with ulcerative colitis. The cDNA for human endothelial constitutive NOS (hecNOS) is isolated from a lambda cDNA library made from RNA extracted from human umbilical vein endothelial cells (HUVEC) and the cDNA for human neuronal constitutive NOS (hncNOS) is isolated from a lambda cDNA library made from RNA extracted from human cerebellum obtained from a cadaver. The recombinant enzymes are expressed in Sf9 insect cells using a baculovirus vector (Rodi et al, in The Biology of Nitric Oxide , Pt. 4: Enzymology Biochemistry and Immunology; Moncada, S., Feelisch, M., Busse, R., Higgs, E., Eds.; Portland Press Ltd.: London, 1995; pp 447-450). Enzyme activity is isolated from soluble cell extracts and partially purified by DEAE-Sepharose chromatography. To measure NOS activity, 10 μL of enzyme is added to 40 μL of 50 mM Tris (pH 7.6) in the presence or absence of test compounds and the reaction initiated by the addition of 50 μL of a reaction mixture containing 5 mM Tris (pH 7.6), 2.0 mg/mL bovine serum albumin, 2.0 mM DTT, 4.0 mM CaCl2, 20 μM FAD, 100 PM tetrahydrobiopterin, 0.4-2.0 mM NADPH and 60 μM L-arginine containing 0.9 μCi of L-[2,3-^3H]-arginine. The final concentration of L-arginine in the assay is 30 μM. For hecNOS or hncNOS, calmodulin is included at a final concentration of 40-100 nM. […] [3H]-Citrulline is separated by chromatography on Dowex 50W X-8 cation exchange resin and radioactivity determined with a liquid scintillation counter. […]

For assay [2], the system named is nitric oxide synthase induced by recombinant human IL-1β in human cartilage explants. In words: Human cartilage explant assay, nitrite production. The following applies: IL-1β stimulated, read-out: IC50, inhibition of nitrite production. In kind it is cell-based. The protocol: Bone pieces are rinsed twice with Dulbecco's Phosphate Buffered Saline (GibcoBRL) and once with Dulbecco's Modified Eagles Medium (GibcoBRL) and placed into a petri dish with phenol red free Minimum Essential Medium (MEM) (GibcoBRL). Cartilage was cut into small explants of approximately 25-45 mg in weight and one or two explants per well are placed into 48 well culture plates with 500 μL of culture media per well. The culture media was either a custom modification of Minimum Essential Medium(Eagle) with Earle's salts (GibcoBRL) prepared without L-Arginine, without L-Glutamine and without phenol red or a custom modification of serumless Neuman and Tytell (GibcoBRL) medium prepared without L-arginine, without insulin, without ascorbic acid, without L-glutamine and without phenol red. Both are supplemented before use with 100 μM L-Arginine (Sigma), 2 mM L-glutamine, 1×HL-1 supplement (BioWhittaker), […] ascorbic acid (Sigma) and 150 pg/ml recombinant human IL-1β (RD Systems) to induce nitric oxide synthase. Compounds are then added in 10 μL aliquots and the explants incubated at 37° C. with 5% CO2 for 18-24 hours. […] This supernatant is analyzed for nitrite with a fluorometric assay (Misko et al, Anal. Biochem., 214, 11-16, 1993). […] IC50 values (Table III) are determined from plotting the percent inhibition of nitrite production at six different concentrations of inhibitor.

Assay [3] addresses T2, human endothelial constitutive NOS (hecNOS) (Homo sapiens, UniProt P29474).
T2 construct: made in house; host or cells: Sf9 insect cells, baculovirus vector
In words: Citrulline assay for nitric oxide synthase, hecNOS. Type of assay: biochemical. The following applies: 30 μM L-arginine, 37° C., 15 minutes, calmodulin. The protocol: as §1

In the next assay the target is T3, hncNOS (Homo sapiens, UniProt P29475).
T3 construct: made in house; host or cells: Sf9 insect cells, baculovirus vector
In words: Assay for time dependent inhibition, hncNOS. Conditions: 60 min preincubation. Type of assay: biochemical. The protocol: as §1

Assay [4] addresses T4, human neuronal constitutive NOS (hncNOS) (Homo sapiens, UniProt P29475).
T4 construct: made in house; host or cells: Sf9 insect cells, baculovirus vector
Description: Citrulline assay for nitric oxide synthase, hncNOS. In kind it is biochemical. Conditions: 30 μM L-arginine, 37° C., 15 minutes, calmodulin. The protocol:
as §1

Assay [5] relates to inducible nitric oxide synthase. Description: In vivo assay, endotoxin-treated rats, plasma nitrite/nitrate. Conditions: oral; for ED50: Rattus norvegicus, read-out: ED50, inhibition of LPS-induced increase in plasma nitrite/nitrate. The protocol:
Compounds are administered orally 0.5-1 hours prior to LPS administration and plasma nitrite/nitrate levels are determined 5 hours following LPS administration.

The target of another assay is T5, hecNOS (Homo sapiens, UniProt P29474).
T5 construct: made in house; host or cells: Sf9 insect cells, baculovirus vector
In words: Assay for time dependent inhibition, hecNOS. Conditions: 60 min preincubation, read-out: % inhibition of NOS activity, hecNOS. Type of assay: biochemical. The protocol:
as §1, with “447-450).” for “447-450). Enzyme activity is isolated from soluble cell extracts and partially purified by DEAE-Sepharose chromatography. To measure NOS activity, 10 μL of enzyme is added to 40 μL of 50 mM Tris (pH 7.6) in the presence or absence of test compounds and the reaction initiated by the addition of 50 μL of a reaction mixture containing 5 mM Tris (pH 7.6), 2.0 mg/mL bovine serum albumin, 2.0 mM DTT, 4.0 mM CaCl2, 20 μM FAD, 100 PM tetrahydrobiopterin, 0.4-2.0 mM NADPH and 60 μM L-arginine containing 0.9 μCi of L-[2,3-^3H]-arginine. The final concentration of L-arginine in the assay is 30 μM. For hecNOS or hncNOS, calmodulin is included at a final concentration of 40-100 nM.”

The mark [6] stands for this setting: 0.5-1 hours prior to LPS, plasma 5 hours after LPS.

T3 sequence (P29475 whole entry): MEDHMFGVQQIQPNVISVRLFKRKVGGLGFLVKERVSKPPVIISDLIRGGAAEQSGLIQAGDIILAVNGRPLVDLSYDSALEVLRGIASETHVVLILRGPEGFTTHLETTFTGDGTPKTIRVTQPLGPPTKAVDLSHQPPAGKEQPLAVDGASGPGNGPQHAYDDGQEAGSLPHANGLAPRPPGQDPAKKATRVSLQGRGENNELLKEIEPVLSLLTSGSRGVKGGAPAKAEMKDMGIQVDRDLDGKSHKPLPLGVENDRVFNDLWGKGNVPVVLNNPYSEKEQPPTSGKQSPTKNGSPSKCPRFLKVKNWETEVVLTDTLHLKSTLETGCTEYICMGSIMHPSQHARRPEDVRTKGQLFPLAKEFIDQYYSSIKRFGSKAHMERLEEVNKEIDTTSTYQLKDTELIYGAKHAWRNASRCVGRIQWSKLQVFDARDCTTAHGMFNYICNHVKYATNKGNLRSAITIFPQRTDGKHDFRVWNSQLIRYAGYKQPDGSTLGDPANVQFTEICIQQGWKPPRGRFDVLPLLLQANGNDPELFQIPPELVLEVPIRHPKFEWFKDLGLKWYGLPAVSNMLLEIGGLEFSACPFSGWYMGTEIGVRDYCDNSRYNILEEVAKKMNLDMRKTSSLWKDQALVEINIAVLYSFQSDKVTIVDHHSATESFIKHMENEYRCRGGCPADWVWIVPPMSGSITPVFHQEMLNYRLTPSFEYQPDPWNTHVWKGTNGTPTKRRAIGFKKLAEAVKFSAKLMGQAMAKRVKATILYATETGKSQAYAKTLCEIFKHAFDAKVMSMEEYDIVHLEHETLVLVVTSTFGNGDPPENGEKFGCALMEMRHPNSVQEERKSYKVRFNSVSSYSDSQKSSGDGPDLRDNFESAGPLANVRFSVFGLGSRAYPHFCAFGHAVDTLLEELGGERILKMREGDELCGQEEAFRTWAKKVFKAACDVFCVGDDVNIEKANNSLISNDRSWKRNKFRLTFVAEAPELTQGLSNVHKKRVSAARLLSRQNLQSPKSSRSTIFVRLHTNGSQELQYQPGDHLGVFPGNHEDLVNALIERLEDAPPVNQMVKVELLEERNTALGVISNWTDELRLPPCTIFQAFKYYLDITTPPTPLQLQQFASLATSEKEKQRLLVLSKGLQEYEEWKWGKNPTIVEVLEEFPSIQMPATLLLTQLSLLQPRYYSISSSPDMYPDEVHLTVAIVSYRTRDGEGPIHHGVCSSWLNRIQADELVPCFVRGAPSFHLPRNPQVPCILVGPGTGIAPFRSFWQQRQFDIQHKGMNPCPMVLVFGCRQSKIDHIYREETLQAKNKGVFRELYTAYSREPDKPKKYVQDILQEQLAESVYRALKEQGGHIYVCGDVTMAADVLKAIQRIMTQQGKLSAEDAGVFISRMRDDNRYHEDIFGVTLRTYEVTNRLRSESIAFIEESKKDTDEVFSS
T5 sequence (P29474 2-1203): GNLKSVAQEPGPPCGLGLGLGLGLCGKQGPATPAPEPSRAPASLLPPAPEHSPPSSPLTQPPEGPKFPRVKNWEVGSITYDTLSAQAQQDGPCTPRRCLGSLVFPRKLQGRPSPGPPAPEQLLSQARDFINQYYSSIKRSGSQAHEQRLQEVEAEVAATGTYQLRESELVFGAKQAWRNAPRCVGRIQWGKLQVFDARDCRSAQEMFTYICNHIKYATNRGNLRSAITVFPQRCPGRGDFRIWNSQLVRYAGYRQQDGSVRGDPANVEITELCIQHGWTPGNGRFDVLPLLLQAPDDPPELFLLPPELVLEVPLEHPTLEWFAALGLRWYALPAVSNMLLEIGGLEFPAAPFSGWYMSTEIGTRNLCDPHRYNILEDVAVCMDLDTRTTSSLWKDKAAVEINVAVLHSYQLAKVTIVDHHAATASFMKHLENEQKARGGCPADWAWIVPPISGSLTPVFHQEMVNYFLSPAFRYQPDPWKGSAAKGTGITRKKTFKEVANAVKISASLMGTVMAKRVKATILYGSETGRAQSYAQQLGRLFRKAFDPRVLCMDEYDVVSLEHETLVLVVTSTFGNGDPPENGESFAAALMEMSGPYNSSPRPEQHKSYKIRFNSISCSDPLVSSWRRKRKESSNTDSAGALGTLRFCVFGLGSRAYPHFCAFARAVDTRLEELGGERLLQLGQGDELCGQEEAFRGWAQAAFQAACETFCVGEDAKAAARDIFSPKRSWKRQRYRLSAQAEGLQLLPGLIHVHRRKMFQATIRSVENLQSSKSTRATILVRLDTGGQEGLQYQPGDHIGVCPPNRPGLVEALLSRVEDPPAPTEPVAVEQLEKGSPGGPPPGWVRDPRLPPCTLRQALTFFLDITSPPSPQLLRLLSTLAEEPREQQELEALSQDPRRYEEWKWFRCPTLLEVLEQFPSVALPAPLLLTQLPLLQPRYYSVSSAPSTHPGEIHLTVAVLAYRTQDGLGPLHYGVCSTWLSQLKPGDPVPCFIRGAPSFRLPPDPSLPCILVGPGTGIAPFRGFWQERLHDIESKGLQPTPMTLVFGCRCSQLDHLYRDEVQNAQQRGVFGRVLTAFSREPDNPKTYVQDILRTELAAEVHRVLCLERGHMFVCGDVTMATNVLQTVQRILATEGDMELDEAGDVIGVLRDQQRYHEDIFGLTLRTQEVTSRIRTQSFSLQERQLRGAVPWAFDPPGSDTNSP

On to `Cl.N=C1CCCC[C@H](CCCC[C@H](N)C(=O)O)N1.O.O.O` [Example 4, (αS,2S)-α-aminohexahydro-7-imino-1H-azepine-2-hexanoic acid, trihydrate hydrochloride], for which the IC50 in assay [1] was under 3 µM; in assay [2] it was under 10 µM; in assay [3] it was over 15 µM; in assay [4], over 3 µM. Also, the “% inhibition of NOS activity, hncNOS” value on hncNOS (3 μM) turned out to be 0% @ 3 μM @ 60 min. In addition, in assay [5] (setting [6]), the ED50 was under 5 mg/kg.
Take `Cl.N=C1CCCC[C@H](CCCC[C@@H](N)C(=O)O)N1.O.O.O` [Example 1, (αR,2S)-α-aminohexahydro-7-imino-1H-azepine-2-hexanoic acid, trihydrate hydrochloride]: the IC50 in assay [1] is under 3 µM; in assay [2] it was under 10 µM; in assay [3], over 30 µM; in assay [4], over 3 µM. In addition, the “% inhibition of NOS activity, hncNOS” value at hncNOS (5 μM) turned out to be 0% @ 5 μM @ 60 min. Further, the inhibition at 33 µM on hecNOS came to 11%. In addition, the ED50 in assay [5] (setting [6]) is under 3 mg/kg. The “effect on LPS-induced increase in plasma nitrite/nitrate levels” value in assay [5] is recorded as “inhibited the LPS-induced increase in plasma nitrite/nitrate levels in a dose dependent manner”. For the same compound, in assay [5] (0.5-1 hours prior to LPS, plasma 5 hours after LPS, trihydrate hydrochloride), the “ED50, inhibition of LPS-induced increase in plasma nitrite/nitrate” value is under 3 mg/kg.
In the case of `Cl.N=C1CCCC[C@@H](CCCC[C@H](N)C(=O)O)N1.O.O.O` [Example 2, (αS,2R)-α-aminohexahydro-7-imino-1H-azepine-2-hexanoic acid, trihydrate hydrochloride], the IC50 in assay [1] was under 5 µM; in assay [3] it was over 150 µM; in assay [4], over 10 µM. In addition, the “% inhibition of NOS activity, hncNOS” value on hncNOS (13 μM) is given as 0% @ 13 μM @ 60 min.
